# Patent US20240173330A1, “USE OF ATR INHIBITORS IN COMBINATION WITH PARP INHIBITORS FOR TREATING CANCER” (Repare Therapeutics Inc., priority 2021, published 2024)
# Columns and labels:
# Type in all cases: cell-based
# [1] = tested on: RNASEH2B+/+ and RNASEH2B−/− cells; assay: Synergy between ATR inhibitor and PARP inhibitor in RNASEH2B+/+ and RNASEH2B−/− cells; settings: combination of ATR inhibitor and PARP inhibitor
# From the text: An ATR inhibitor (e.g., compound 121) may synergize with a PARP inhibitor (e.g., 5-[4-[(7-ethyl-6-oxo-5H-1,5-naphthyridin-3-yl)methyl]piperazin-1-yl]-N-methyl-pyridine-2-carboxamide) in RNASEH2B+/+ and RNASEH2B−/− cells. Importantly, in RNASEH2B−/− cells, synergy (e.g., maximum synergy) may be achieved at lower concentrations of an ATR inhibitor (e.g., compound 121) and lower concentrations of the PARP inhibitor (e.g., 5-[4-[(7-ethyl-6-oxo-5H-1,5-naphthyridin-3-yl)methyl]piperazin-1-yl]-N-methyl-pyridine-2-carboxamide) than in RNASEH2B+/+ cells. As a result, the apparent IC50 of the PARP inhibitor may shift in the presence of the ATR inhibitor (e.g., compound 121).
# In addition to selecting a sensitized genetic background, tolerability of the combination treatment with an ATR inhibitor and PARP inhibitor can be improved by optimizing dosing schedules (Fang et al., Cancer Cell, 35:851-867, 2019). To guide the combined dosing of the ATR inhibitor (e.g., compound 121) and the PARP inhibitor (e.g., 5-[4-[(7-ethyl-6-oxo-5H-1,5-naphthyridin-3-yl)methyl]piperazin-1-yl]-N-methyl-pyridine-2-carboxamide) in RNASEH2B-deficient tumor cells, a continuous longer (e.g., 168 h) concomitant treatment of RNASEH2B+/+ and −/− cells with both compounds may be compared to a shorter (e.g., either a 48 or 72 h) treatment followed by removal of compounds and growth in drug-free media. […]
# [2] = tested on: isogenic cell lines lacking CDK12 or BRCA2; assay: 48-hr combination treatment of isogenic cell lines lacking CDK12 or BRCA2; settings: 48-hr treatment with combination
# From the text: The optimized dosing schedule may be applicable to cells carrying mutations not only in RNASEH2B, but additional genes.
# [3] = tested on: tumor cells that employ the Alternative Lengthening of Telomeres (ALT) mechanism; assay: Combination against ALT tumor cells; settings: combination of ATR inhibitor with PARP inhibitor
# From the text: In addition to tumors carrying the above-mentioned genetic alterations, the combination of ATR inhibitors (e.g., Compound 121) with PARP inhibitors (e.g., 5-[4-[(7-ethyl-6-oxo-5H-1,5-naphthyridin-3-yl)methyl]piperazin-1-yl]-N-methyl-pyridine-2-carboxamide) may be effective against tumor cells that employ the Alternative Lengthening of Telomeres (ALT) mechanism.
SMILES,synergy of ATR inhibitor with PARP inhibitor [1],synergistic sensitization [2],effectiveness of combination against ALT tumor cells [3]
"CCc1cc2ncc(CN3CCN(c4ccc(C(=O)NC)nc4)CC3)cc2[nH]c1=O [5-[4-[(7-ethyl-6-oxo-5H-1,5-naphthyridin-3-yl)methyl]piperazin-1-yl]-N-methyl-pyridine-2-carboxamide]",synergize,synergistically sensitize,effective
C[C@@H]1COCCN1c1cc([C@@]2(O)C[C@H]3CC[C@@H](C2)O3)c2cnn(-c3cc[nH]n3)c2n1 [compound 121],synergize,synergistically sensitize,effective
